Results published in ChEMBL document CHEMBL1201862, “PubChem BioAssay data set” (2004).
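Protocol summary: plate cells (96-well), add compound at 5 concentrations, incubate 48 h, interpolate endpoints linearly. GI50 is the concentration that inhibits growth by half.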 Activity calls are given as the source filed them. Cut-off read from the data, not from the text of the source: active = GI50 up to about 1.1 µM and inactive = higher. *1 amine or outer side, *2 acyl side, *3 side chain or, on linkers, in order; H or OH if unused. Where a SMILES comes first, the peptide text is derived from it. Bridges are numbered along the chain shown (N, C = ends). [ ]: non-standard residue; d: D form. The star is where a group is joined. X56 = CC(C)C(C)C(C(=O)[*:2])N(C)[*:1]; Picolinoyl(3-OH) = O=C(c1ncccc1O)*; NMePhg = CN[CH](C(=O)O)c1ccccc1; Hyp = O=C(O)[CH]1C[CH](O)CN1; Sar = CNCC(=O)O

Key:
Assay in all cases: NCI-60 cell line screen, 48 h
OVCAR-5 = test system: OVCAR-5
SF-295 = test system: SF-295
K562 = test system: K562
SK-OV-3 = test system: SK-OV-3
UACC-62 = test system: UACC-62
UACC-257 = test system: UACC-257
SK-MEL-2 = test system: SK-MEL-2
HOP-92 = test system: HOP-92
NCI-H226 = test system: NCI-H226
SK-MEL-5 = test system: SK-MEL-5
HT-29 = test system: HT-29
EKVX = test system: EKVX
LOX IMVI = test system: LOX IMVI
TK-10 = test system: TK-10
SW-620 = test system: SW-620
KM12 = test system: KM12
HOP-62 = test system: HOP-62
HCC 2998 = test system: HCC 2998
MCF7 = test system: MCF7
RPMI-8226 = test system: RPMI-8226

Row | Compound | GI50 (OVCAR-5) | GI50 (SF-295) | GI50 (K562) | GI50 (SK-OV-3) | GI50 (UACC-62) | GI50 (UACC-257) | GI50 (SK-MEL-2) | GI50 (HOP-92) | GI50 (NCI-H226) | GI50 (SK-MEL-5) | GI50 (HT-29) | GI50 (EKVX) | GI50 (LOX IMVI) | GI50 (TK-10) | GI50 (SW-620) | GI50 (KM12) | GI50 (HOP-62) | GI50 (HCC 2998) | GI50 (MCF7) | GI50 (RPMI-8226)
1 | C=C(CC[C@@H](C)[C@H]1CC[C@@]2(C)C3=C(CC[C@]12C)[C@@]1(C)CC[C@H](O)[C@@H](C)C1CC3)C(C)C (some centres not stated) | 1.42 µM (inactive) | 1.08 µM (active) | 0.273 µM (active) | 1.6 µM (inactive) | 1.43 µM (inactive) | 1.49 µM (inactive) | 1.56 µM (inactive) | 1.18 µM (inactive) | 1.81 µM (inactive) | 1.26 µM (inactive) | 0.48 µM (active) | 1.23 µM (inactive) | 0.906 µM (active) | 1.35 µM (inactive) | 1.71 µM (inactive) | 1.26 µM (inactive) | 0.879 µM (active) | 1.53 µM (inactive) | 1.47 µM (inactive) | 
2 | COC(=O)[C@@H](Nc1ccccc1)[C@@]1(C(=O)OC)SC12c1ccccc1-c1ccccc12 | > 100 µM (inactive) | > 100 µM (inactive) | 56.4 µM (inactive) |  | 45.2 µM (inactive) | 84.3 µM (inactive) | 74.6 µM (inactive) | 9.29 µM (inactive) | > 100 µM (inactive) | 41.4 µM (inactive) | 34.3 µM (inactive) | 61.8 µM (inactive) | 32.7 µM (inactive) | > 100 µM (inactive) | 38.3 µM (inactive) | > 100 µM (inactive) | > 100 µM (inactive) | > 100 µM (inactive) | 34.2 µM (inactive) | 25.8 µM (inactive)
3 | CSCC[C@@H]1C(=O)N(C)[C@H](C(C)(C)C)N1C(=O)c1ccccc1 | > 100 µM (inactive) | > 100 µM (inactive) | > 100 µM (inactive) | > 100 µM (inactive) | > 100 µM (inactive) | > 100 µM (inactive) | > 100 µM (inactive) | > 100 µM (inactive) | > 100 µM (inactive) | > 100 µM (inactive) | > 81.5 µM (inactive) | > 100 µM (inactive) | > 100 µM (inactive) |  | > 100 µM (inactive) | > 100 µM (inactive) | > 100 µM (inactive) | > 100 µM (inactive) | > 100 µM (inactive) | > 100 µM (inactive)
4 | CC(C)CC1NC(=O)C(NC(=O)c2ncccc2O)C(C)OC(=O)C(c2ccccc2)N(C)C(=O)C(C)NC(=O)C(C(C)C(C)C)N(C)C(=O)CN(C)C(=O)C2CC(O)CN2C1=O (configuration not stated) ({Picolinoyl(3-OH)}-TL[Hyp][Sar][X56]A[NMePhg]; ester 1-C; configuration not given here) | > 125 µM (inactive) | 85.7 µM (inactive) | 61.8 µM (inactive) | > 125 µM (inactive) | 45.1 µM (inactive) | 58.2 µM (inactive) | 38.7 µM (inactive) | 74.1 µM (inactive) | 71.1 µM (inactive) | 24.3 µM (inactive) | 37.6 µM (inactive) | 10.1 µM (inactive) | > 125 µM (inactive) |  | 32.7 µM (inactive) | 80.4 µM (inactive) | > 125 µM (inactive) | 78.7 µM (inactive) | 13.7 µM (inactive) | 35.8 µM (inactive)
5 | CCN(CC)Cc1sc2nc3ccccc3n2c1-c1ccc(OC)cc1 | 76 µM (inactive) | 24.5 µM (inactive) | 3.22 µM (inactive) | 27 µM (inactive) | 34.8 µM (inactive) | > 100 µM (inactive) | 43.4 µM (inactive) | 27.8 µM (inactive) | 22.8 µM (inactive) |  | 18.5 µM (inactive) | 27.6 µM (inactive) | 28.3 µM (inactive) | 79.6 µM (inactive) | 29 µM (inactive) | 20.6 µM (inactive) | 65.5 µM (inactive) | 45.6 µM (inactive) | 23 µM (inactive) | 10.5 µM (inactive)
6 | COCCOCCOCCOc1ccc(C(C#N)N(CCc2ccccc2)C(=O)c2cc(C(=O)N(CCc3ccccc3)C(C#N)c3ccc(OCCOCCOCCOC)cc3)cc(C(=O)N(CCc3ccccc3)C(C#N)c3ccc(OCCOCCOCCOC)cc3)c2)cc1 (configuration not stated) | > 100 µM (inactive) | > 100 µM (inactive) | > 100 µM (inactive) | > 100 µM (inactive) | > 100 µM (inactive) | > 100 µM (inactive) | > 100 µM (inactive) | 85.7 µM (inactive) | > 100 µM (inactive) | > 100 µM (inactive) | > 100 µM (inactive) | > 100 µM (inactive) | > 100 µM (inactive) | > 100 µM (inactive) | > 100 µM (inactive) | > 100 µM (inactive) | > 100 µM (inactive) | > 100 µM (inactive) | > 100 µM (inactive) | 
7 | CC1CCCN1CCCOC(=O)c1ccc(OC2C=CCCC2)cc1 (configuration not stated) | 71.9 µM (inactive) | 16.5 µM (inactive) | 18.9 µM (inactive) | 56.1 µM (inactive) | > 100 µM (inactive) | 60.8 µM (inactive) | > 100 µM (inactive) |  | 29.4 µM (inactive) | 19.2 µM (inactive) | 17.7 µM (inactive) | 51.4 µM (inactive) | 19.7 µM (inactive) | 36.9 µM (inactive) | 20.7 µM (inactive) | 38.2 µM (inactive) | 20.1 µM (inactive) | 28.6 µM (inactive) | 25.1 µM (inactive) | 31.8 µM (inactive)
8 | COC(=O)/C=C/c1cnc2c(c1)oc(=O)n2CCc1ccccn1 | > 100 µM (inactive) | > 100 µM (inactive) | 73.3 µM (inactive) | > 100 µM (inactive) | > 100 µM (inactive) | > 100 µM (inactive) | > 100 µM (inactive) |  | 17.2 µM (inactive) | 59.6 µM (inactive) | > 100 µM (inactive) | > 100 µM (inactive) | > 100 µM (inactive) | > 100 µM (inactive) | 92 µM (inactive) | > 100 µM (inactive) | > 100 µM (inactive) | > 100 µM (inactive) | > 100 µM (inactive) | > 100 µM (inactive)
9 | NC(=O)C(=O)c1ncn(Cc2ccccc2)c1N | > 100 µM (inactive) | > 100 µM (inactive) | > 100 µM (inactive) | > 100 µM (inactive) | > 100 µM (inactive) | > 100 µM (inactive) | > 100 µM (inactive) |  | > 100 µM (inactive) | > 100 µM (inactive) | > 100 µM (inactive) | > 100 µM (inactive) | 89.5 µM (inactive) | > 100 µM (inactive) | > 100 µM (inactive) | > 100 µM (inactive) | > 100 µM (inactive) | > 100 µM (inactive) | > 100 µM (inactive) | > 100 µM (inactive)
10 | CC(=O)On1c(-c2ccccc2-c2nc3ccccc3n2OC(C)=O)nc2ccccc21 | > 100 µM (inactive) | 44.7 µM (inactive) | 13.9 µM (inactive) | 55.1 µM (inactive) | 21 µM (inactive) | 12.5 µM (inactive) | 22.4 µM (inactive) |  | 25.9 µM (inactive) | 3.4 µM (inactive) |  | > 10 µM (inactive) | 18.5 µM (inactive) | 68.1 µM (inactive) | 34.4 µM (inactive) | 22.5 µM (inactive) | 97.9 µM (inactive) | 33.4 µM (inactive) | 26.7 µM (inactive) | 7.82 µM (inactive)
11 | CCCCCC(=O)OCC1(CO)C/C(=C\CC(C(C)C)C(C)C)C(=O)O1 (configuration not stated) | > 100 µM (inactive) | 25.9 µM (inactive) | 24.1 µM (inactive) | > 100 µM (inactive) | > 100 µM (inactive) | > 100 µM (inactive) | > 100 µM (inactive) | 93.3 µM (inactive) | 65.5 µM (inactive) | 38.4 µM (inactive) | 30.7 µM (inactive) | > 100 µM (inactive) | 27 µM (inactive) | > 100 µM (inactive) | 24.4 µM (inactive) | 39.6 µM (inactive) | 39 µM (inactive) | > 100 µM (inactive) | 78.7 µM (inactive) | 
12 | CC1C(c2ccc(N(C)C)cc2)c2cc3c(cc2OC1N1CCCC1)OCO3 (configuration not stated) | > 87.1 µM (inactive) | 32.1 µM (inactive) | 32.5 µM (inactive) |  | 46.1 µM (inactive) | > 92.5 µM (inactive) | 30.5 µM (inactive) | 6.25 µM (inactive) |  | 30.6 µM (inactive) | 32.5 µM (inactive) | 64.6 µM (inactive) | 38.2 µM (inactive) | 98.6 µM (inactive) | 42 µM (inactive) | 47.2 µM (inactive) | 25.2 µM (inactive) | 34.6 µM (inactive) | 24.3 µM (inactive) | 36.1 µM (inactive)
13 | CC1(C)CCCOc2cccc(c2)OCCCC(C)(C)C1=O | > 100 µM (inactive) |  | 14.8 µM (inactive) | 33 µM (inactive) | 19.1 µM (inactive) |  | 24.9 µM (inactive) | 23 µM (inactive) | 25.5 µM (inactive) | 18.4 µM (inactive) | 19.8 µM (inactive) | 37.3 µM (inactive) | 20.7 µM (inactive) | > 100 µM (inactive) | 27 µM (inactive) | 26 µM (inactive) | 30.6 µM (inactive) |  | 31 µM (inactive) | 26.7 µM (inactive)
14 | CN1CCC[N+](C)=C1c1ccccc1 | > 100 µM (inactive) | > 100 µM (inactive) | > 100 µM (inactive) | > 100 µM (inactive) |  | > 100 µM (inactive) | > 100 µM (inactive) | > 100 µM (inactive) | > 100 µM (inactive) | > 100 µM (inactive) | > 100 µM (inactive) | > 100 µM (inactive) | > 100 µM (inactive) | > 100 µM (inactive) | > 100 µM (inactive) | > 100 µM (inactive) | > 100 µM (inactive) | > 100 µM (inactive) | > 100 µM (inactive) | > 100 µM (inactive)
